Non-standard residues stand in square brackets, D forms with d. Residues, ends and D or L forms follow the SMILES beside them. *: point of attachment. Asp(3,3-(CH2)4) = N[C@H](C(=O)O)C1(C(=O)O)CCCC1; Dibenzylacetyl = O=C(C(Cc1ccccc1)Cc1ccccc1)*; Leu(γ-Me)ol = CC(C)(C)C[C@@H](CO)N*; Hydrocinnamoyl = O=C(CCc1ccccc1)*; tBuAla = CC(C)(C)C[C@H](N)C(=O)O; Butanoyl(2-Et) = CCC(CC)C(=O)*; Chg = N[C@H](C(=O)O)C1CCCCC1; Tle = CC(C)(C)[C@H](N)C(=O)O; NMeV = CN[C@H](C(=O)O)C(C)C; Leu(ol) = CC(C)C[C@H](N)CO; Pyrrolidide = C1CCN(*)C1; Abu = CC[C@H](N)C(=O)O
Assays:
[1] = target: Ribonucleotide reductase large subunit (Herpes simplex virus 1); assay: In vitro inhibitory activity against HSV ribonucleotide reductase
[2] = target: Ribonucleotide reductase large subunit (Herpes simplex virus 2); assay: Inhibitory activity against HSV-2 in baby hamster kidney cell
[3] = target: Ribonucleotide reductase large subunit (Herpes simplex virus 1); assay: Inhibitory activity against HSV-1 in baby hamster kidney cell

Compound | IC50 [1] | EC50 [2] | EC50 [3]
CC(C)C[C@H](NC(=O)[C@@H](NC(=O)[C@H](CC(=O)N1CCCC1)NC(=O)[C@@H](NC(=O)[C@@H](NC(=O)CCc1ccccc1)C(C)C)C(C)C)C1(C(=O)O)CCCC1)C(=O)O (Hydrocinnamoyl-VVD(Pyrrolidide)[Asp(3,3-(CH2)4)]L-OH) | 0.001 µM | – | –
CC[C@H](C)[C@H](NC(=O)CCc1ccccc1)C(=O)N[C@H](C(=O)N[C@@H](CC(=O)N1CCCC1)C(=O)N[C@@H](CC(=O)O)C(=O)N[C@@H](CC(C)C)C(=O)O)C(C)C (Hydrocinnamoyl-IVD(Pyrrolidide)DL-OH) | 0.061 µM | – | –
CC(C)C[C@H](NC(=O)[C@H](CC(=O)O)NC(=O)[C@H](CC(=O)N1CCCC1)NC(=O)[C@@H](NC(=O)[C@H](C)NC(=O)CCc1ccccc1)C(C)C)C(=O)O (Hydrocinnamoyl-AVD(Pyrrolidide)DL-OH) | 8.8 µM | – | –
CC(C)C[C@H](NC(=O)[C@H](CC(=O)O)NC(=O)[C@H](CC(N)=O)NC(=O)[C@@H](NC(=O)[C@@H](NC(=O)[C@H](C)Cc1ccccc1)C(C)C)C(C)C)C(=O)O | 0.86 µM | – | –
CC(C)[C@@H](C(=O)N[C@H](C(=O)N[C@@H](CC(=O)N1CCCC1)C(=O)N[C@H](C(=O)N[C@@H](CC(C)(C)C)C(=O)O)C1(C(=O)O)CCCC1)C(C)(C)C)N(C)C(=O)C(Cc1ccccc1)Cc1ccccc1 (Dibenzylacetyl-[NMeV][Tle]D(Pyrrolidide)[Asp(3,3-(CH2)4)][tBuAla]-OH) | – | 30 µM | 35 µM
CC(C)C[C@H](NC(=O)[C@H](CC(=O)O)NC(=O)[C@H](CC(=O)N1CCCC1)NC(=O)[C@@H](NC(=O)[C@@H](NC(=O)CCc1ccccc1)C1CCCCC1)C(C)C)C(=O)O (Hydrocinnamoyl-[Chg]VD(Pyrrolidide)DL-OH) | 0.022 µM | – | –
CC(C)[C@H](NC(=O)[C@H](C(C)C)N(C)C(=O)C(Cc1ccccc1)Cc1ccccc1)C(=O)N[C@@H](CC(=O)N1CCCC1)C(=O)N[C@H](C(=O)N[C@H](CO)CC(C)(C)C)C1(C(=O)O)CCCC1 (Dibenzylacetyl-[NMeV]VD(Pyrrolidide)[Asp(3,3-(CH2)4)]-{Leu(γ-Me)ol}) | – | 6.5 µM | 7 µM
CC(C)C[C@H](NC(=O)[C@H](CC(=O)O)NC(=O)[C@H](CC(N)=O)NC(=O)[C@@H](NC(=O)[C@@H](NC(=O)C(Cc1ccccc1)Cc1ccccc1)C(C)C)C(C)C)C(=O)O | 0.18 µM | – | –
CCC(CC)C(=O)N[C@H](C(=O)N[C@@H](CC(=O)N1CCCC1)C(=O)N[C@@H](CC(=O)O)C(=O)N[C@@H](CC(C)C)C(=O)O)C(C)C ({Butanoyl(2-Et)}-VD(Pyrrolidide)DL-OH) | 0.86 µM | – | –
CC(C)C[C@H](NC(=O)[C@H](CC(=O)O)NC(=O)[C@H](CC(N)=O)NC(=O)[C@@H](NC(=O)[C@H](C(C)C)N(C)C(=O)C(Cc1ccccc1)Cc1ccccc1)C(C)C)C(=O)O | 0.022 µM | – | –
CC(C)[C@@H](C(=O)N[C@H](C(=O)N[C@@H](CC(N)=O)C(=O)N[C@H](C(=O)N[C@H](CO)CC(C)(C)C)C1(C(=O)O)CCCC1)C(C)(C)C)N(C)C(=O)C(Cc1ccccc1)Cc1ccccc1 (Dibenzylacetyl-[NMeV][Tle]N[Asp(3,3-(CH2)4)]-{Leu(γ-Me)ol}) | – | 150 µM | 150 µM
CC(C)C[C@H](NC(=O)[C@H](CC(=O)O)NC(=O)[C@H](CC(=O)N1CCCC1)NC(=O)[C@@H](NC(=O)[C@@H](NC(=O)CCc1ccccc1)C(C)C)C(C)C)C(=O)O (Hydrocinnamoyl-VVD(Pyrrolidide)DL-OH) | 0.024 µM | – | –
CC(C)C[C@H](NC(=O)[C@H](CC(=O)O)NC(=O)[C@H](CC(=O)N1CCCC1)NC(=O)[C@@H](NC(=O)CNC(=O)CCc1ccccc1)C(C)C)C(=O)O (Hydrocinnamoyl-GVD(Pyrrolidide)DL-OH) | 115 µM | – | –
CC(C)C[C@H](NC(=O)[C@H](CC(=O)O)NC(=O)[C@H](CC(=O)N1CCCC1)NC(=O)[C@@H](NC(=O)[C@@H](NC(=O)CCc1ccccc1)C(C)C)C(C)(C)C)C(=O)O (Hydrocinnamoyl-V[Tle]D(Pyrrolidide)DL-OH) | 0.004 µM | – | –
CC(C)[C@H](NC(=O)CCc1ccccc1)C(=O)N[C@H](C(=O)N[C@@H](CC(=O)N1CCCC1)C(=O)N[C@@H](CC(=O)O)C(=O)N[C@@H](CC(C)(C)C)C(=O)O)C(C)C (Hydrocinnamoyl-VVD(Pyrrolidide)D[tBuAla]-OH) | 0.005 µM | – | –
CC[C@H](NC(=O)CCc1ccccc1)C(=O)N[C@H](C(=O)N[C@@H](CC(=O)N1CCCC1)C(=O)N[C@@H](CC(=O)O)C(=O)N[C@@H](CC(C)C)C(=O)O)C(C)C (Hydrocinnamoyl-[Abu]VD(Pyrrolidide)DL-OH) | 0.34 µM | – | –
CC(C)C[C@H](NC(=O)[C@H](CC(=O)O)NC(=O)[C@H](CC(=O)N1CCCC1)NC(=O)[C@@H](NC(=O)[C@@H](NC(=O)CCc1ccccc1)C(C)(C)C)C(C)C)C(=O)O (Hydrocinnamoyl-[Tle]VD(Pyrrolidide)DL-OH) | 0.036 µM | – | –

Second part, the molecule after the results:

IC50 [1] | EC50 [2] | EC50 [3] | Compound
0.0064 µM | – | – | CCC(CC)C(=O)N[C@H](C(=O)N[C@@H](CC(=O)N1CCCC1)C(=O)N[C@H](C(=O)N[C@@H](CC(C)C)C(=O)O)C1(C(=O)O)CC=CC1)C(C)(C)C
– | 35 µM | 52 µM | CC(C)[C@@H](C(=O)N[C@H](C(=O)N[C@@H](CC(=O)N1CCCC1)C(=O)N[C@H](C(=O)N[C@H](CO)CC(C)(C)C)C1(C(=O)O)CCCC1)C(C)(C)C)N(C)C(=O)CCc1ccccc1 (Hydrocinnamoyl-[NMeV][Tle]D(Pyrrolidide)[Asp(3,3-(CH2)4)]-{Leu(γ-Me)ol})
0.034 µM | – | – | CC(C)[C@H](NC(=O)CCc1ccccc1)C(=O)N[C@H](C(=O)N[C@@H](CC(=O)N1CCCC1)C(=O)N[C@@H](CC(=O)O)C(=O)N[C@H](CO)CC(C)(C)C)C(C)C (Hydrocinnamoyl-VVD(Pyrrolidide)D-{Leu(γ-Me)ol})
– | 39 µM | 30 µM | CC(C)[C@@H](C(=O)N[C@H](C(=O)N[C@@H](CC(=O)N1CCCC1)C(=O)N[C@@H](CC(=O)O)C(=O)N[C@H](CO)CC(C)(C)C)C(C)(C)C)N(C)C(=O)C(Cc1ccccc1)Cc1ccccc1 (Dibenzylacetyl-[NMeV][Tle]D(Pyrrolidide)D-{Leu(γ-Me)ol})
0.0007 µM | – | – | CC(C)C[C@H](NC(=O)[C@H](CC(=O)O)NC(=O)[C@H](CC(=O)N1CCCC1)NC(=O)[C@@H](NC(=O)[C@@H](NC(=O)C(Cc1ccccc1)Cc1ccccc1)C(C)C)C(C)C)C(=O)O (Dibenzylacetyl-VVD(Pyrrolidide)DL-OH)
0.88 µM | – | – | CC(=O)N[C@H](C(=O)N[C@H](C(=O)N[C@@H](CC(=O)N1CCCC1)C(=O)N[C@@H](CC(=O)O)C(=O)N[C@@H](CC(C)C)C(=O)O)C(C)C)C(C)C (Ac-VVD(Pyrrolidide)DL-OH)
4 µM | – | – | CC(C)C[C@H](NC(=O)[C@H](CC(=O)O)NC(=O)[C@H](CC(N)=O)NC(=O)[C@@H](NC(=O)[C@@H](NC(=O)CCc1ccccc1)C(C)C)C(C)C)C(=O)O
– | 7.3 µM | 7.3 µM | CC(C)C[C@@H](CO)NC(=O)[C@@H](NC(=O)[C@H](CC(=O)N1CCCC1)NC(=O)[C@@H](NC(=O)[C@H](C(C)C)N(C)C(=O)C(Cc1ccccc1)Cc1ccccc1)C(C)(C)C)C1(C(=O)O)CCCC1 (Dibenzylacetyl-[NMeV][Tle]D(Pyrrolidide)[Asp(3,3-(CH2)4)][Leu(ol)])
– | 4.2 µM | 3.1 µM | CC(C)[C@@H](C(=O)N[C@H](C(=O)N[C@@H](CC(=O)N1CCCC1)C(=O)N[C@H](C(=O)N[C@H](CO)CC(C)(C)C)C1(C(=O)O)CCCC1)C(C)(C)C)N(C)C(=O)C(Cc1ccccc1)Cc1ccccc1 (Dibenzylacetyl-[NMeV][Tle]D(Pyrrolidide)[Asp(3,3-(CH2)4)]-{Leu(γ-Me)ol})
– | 14 µM | 12 µM | CC(C)[C@H](NC(=O)C(Cc1ccccc1)Cc1ccccc1)C(=O)N[C@H](C(=O)N[C@@H](CC(=O)N1CCCC1)C(=O)N[C@H](C(=O)N[C@H](CO)CC(C)(C)C)C1(C(=O)O)CCCC1)C(C)(C)C (Dibenzylacetyl-V[Tle]D(Pyrrolidide)[Asp(3,3-(CH2)4)]-{Leu(γ-Me)ol})
0.0075 µM | – | – | CC(C)C[C@H](NC(=O)[C@H](CC(=O)O)NC(=O)[C@H](CC(=O)N1CCCC1)NC(=O)[C@@H](NC(=O)[C@H](C(C)C)N(C)C(=O)CCc1ccccc1)C(C)C)C(=O)O (Hydrocinnamoyl-[NMeV]VD(Pyrrolidide)DL-OH)
11 µM | – | – | CC(C)C[C@H](NC(=O)[C@H](CC(=O)O)NC(=O)[C@H](CC(N)=O)NC(=O)[C@@H](NC(=O)[C@@H](NC(=O)[C@@H](C)Cc1ccccc1)C(C)C)C(C)C)C(=O)O

From ChEMBL document CHEMBL1128692, “Peptidomimetic inhibitors of herpes simplex virus ribonucleotide reductase: a new class of antiviral agents” (J Med Chem, 1995)
